According to publication PMC2363984 (British Journal of Cancer, 2001):
Where two headings read alike, the source gives them in different places.

Key:
recurrent ovarian cancer = assay: Tumour responses to IP topotecan; type: in vivo, human
clinical [1] = settings: female, human, in vivo, ip
DNA topoisomerase I = system: DNA topoisomerase I; set-up: method as in Kingsbury et al, 1991; settings: in vitro; ref Kingsbury et al, 1991; cited from earlier work
[2] = human, in vivo, ip; for MRT / T1/2: female
[3] = set-up: method as in Rowinsky et al, 1992; Verweij et al, 1993; Herben et al, 1996; settings: ref Rowinsky et al, 1992, Verweij et al, 1993, Herben et al, 1996, cited from earlier work
[4] = system: human tumor colony forming units; set-up: method as in Burris et al, 1992; settings: in vitro; ref Burris et al, 1992; cited from earlier work
[5] = in vitro, 1994, cited from earlier work
ovarian cancer = system: ovarian cancer; set-up: method as in earlier work; settings: patients who failed platinum based chemotherapy; ref Neijt et al, 1991; Kudelka et al, 1996; Ten Bokkel Huinink et al, 1997; cited from earlier work
[6] = cited from earlier work
[7] = female, human, in vivo
[8] = Phase I toxicity of IP topotecan (WHO grading)
[9] = in vivo
clinical [10] = settings: female, human, in vivo, ip, 20 mg/m2, Cmax
[11] = cited from earlier work; remark: listed apart in the source

Structure (SMILES): CC[C@@]1(O)C(=O)OCc2c1cc1n(c2=O)Cc2cc3c(CN(C)C)c(O)ccc3nc2-1 [topotecan, Topotecan]
- Partial responses (> 50% decrease in repeated CA125 levels) (recurrent ovarian cancer; biochemically evaluable patients): 6 of 13
- Stable disease for 6-8 cycles (recurrent ovarian cancer; clinically evaluable patients): 5 of 8
- Complete clinical responses (recurrent ovarian cancer; pretreated patients, IP 5-30 mg/m2): no complete clinical responses
- Patients with progressive disease (recurrent ovarian cancer; three by marker and three by clinical parameters): six
- AUC (clinical [1]; 5 mg/m2, AUC): 81 ng·h/mL
- MRT (clinical [1]; 5 mg/m2, MRT): 7 h
- half-life (clinical [1]; 5 mg/m2, T1/2): 4.6 h
- AUC (clinical [1]; 10 mg/m2, AUC): 107 ng·h/mL
- Cmax (clinical [1]; 10 mg/m2, Cmax): 14 ng/mL
- MRT (clinical [1]; 10 mg/m2, MRT): 6.5 h
- half-life (clinical [1]; 10 mg/m2, T1/2): 3.9 h
- Tmax (clinical [1]; 10 mg/m2, Tmax): 1.7 h
- Tmax (clinical [1]; 15 mg/m2, Tmax): 1.6 h
- MRT (clinical [1]; 20 mg/m2, MRT): 8.1 h
- half-life (clinical [1]; 20 mg/m2, T1/2): 4.4 h
- Tmax (clinical [1]; 20 mg/m2, Tmax): 3 h
- Cmax (clinical [1]; 30 mg/m2, Cmax): 145 ng/mL
- Tmax (clinical [1]; 30 mg/m2, Tmax): 1.8 h
- half-life (clinical [1]; T1/2): 5.2 h
- half-life (clinical [1]; T1/2 of lactone in this study (discussion)): 5.5 h
- Tmax (clinical [1]; Tmax (time to peak plasma level after start of IP administration)): 2.1 h
- Inhibition of DNA topoisomerase I (DNA topoisomerase I): potent inhibitor
- MRT ([2]; 10 mg/m2): 2.6 h
- T1/2 ([2]; 10 mg/m2): 1.8 h
- MRT ([2]; 30 mg/m2): 3.4 h
- T1/2 ([2]; 30 mg/m2): 2.3 h
- CL [2]: 0.8 L/h/m2
- Form at equilibrium ([3]; pH 7.4): open-ring form predominates
- Stability in infusion fluids ([3]; pH < 4.0): stable
- Stability in plasma ([3]; plasma): unstable
- Threshold concentration for cytotoxic activity, continuous exposure [4]: 100 µg/L
- Cytotoxic concentrations ([5]; ref Pizao et al): 13.7 to 229 µg/L
- Cytotoxic concentration ([5]; ref Tanizawa et al): 128 µg/L
- Duration of response (ovarian cancer): 22-32 weeks
- Recommended dosage ([6]; continuous 24-h IP infusion, ref Plaxe et al, 1998): 3 mg/m2
- Dose limiting toxicity in most studies ([6]; ref Abbruzzese et al, 1993, Kantarjian et al, Rowinsky et al, 1994, Van Warmerdam et al, 1995, Hochster et al): neutropenia
- Tmax (time to peak plasma level after start of IP administration) [7]: 2.7 ± 1.1 h
- Dose level from which plasma concentrations required for cytotoxicity in vitro were reached ([7]; ip): ≥ 15 mg/m2
- T1/2 ([7]; ip): 3.7 ± 1.3 h
- MRT ([7]; ip, 20 mg/m2): 6.9 h
- Maximum tolerated dose (MTD) [8]: 20 mg/m2
- Patients with nausea and/or vomiting grade I-II ([9]; female, human): 12 patients
- Platelets toxicity Grade III, worst haematologic toxicity (number) ([9]; female, human, 74 cycles): 2
- Platelets toxicity Grade IV, worst haematologic toxicity (number) ([9]; female, human, 74 cycles): 0
- WBC toxicity Grade III, worst haematologic toxicity (number) ([9]; female, human, 74 cycles): 5
- WBC toxicity Grade IV, worst haematologic toxicity (number) ([9]; female, human, 74 cycles): 1
- Duration of myelosuppression ([9]; female, human, ip): < 7 days
- Recommended dose for further phase II trials ([9]; female, human, ip): 20 mg/m2
- Bleeding episodes [9]: No bleeding episodes
- Patients with abdominal pain grade I [9]: six
- Patients with nausea and vomiting grade III [9]: three
- Dose limiting toxicity (DLT) ([9]; ip): acute hypotension, chills and fever
- Patients with generalized transient skin rash ([9]; ip): four
- Cmax (clinical [10]): 12100 ng/mL
- Vss for lactone ([11]; IV administration, ref Herben et al): 94 L/m2
- Terminal T1/2 for peritoneal topotecan ([11]; continuous IP infusion, ref Plaxe et al, 1998): 2.7 h
